# From patent US20230263752A1, “VETERINARY COMPOSITIONS FOR THE TREATMENT AND/OR PREVENTION OF PROTOZOAN DISEASES AND METHODS OF PREPARATION THEREOF” (ADIFEED SP. Z O. O., priority 2020, published 2023)
# Values joined by “and” are separate entries in the source; they are usually repeats but may differ in a detail not shown here. Equal values may be shown once.
# Assays:
# Gregarina blattarum = experiment: in vitro protozoicidal test on gregarines isolated from cockroaches, in Ringer's solution; format: cell-based; settings: for LD100: 100% mortality within 3 minutes
# Source text: For in vitro tests of antiprotozoal activity of the composition five reference organisms representing taxonomic groups to which pathogenic protozoa belong were selected, i.e: • Amoeba proteus—Chaos diffluens—a protozoan of the order Euamoebida, belonging to fifth supergroup of the Amoebozoa, living in waters. • Paramecium caudatum—a slipper animalcule representing the Ciliata orachs, living in waters. • Gregarina blattarum—gregarine isolated from cockroaches, representing the phylum Apicomplexa, living in the digestive tracts or body cavities of invertebrates. • Euglena gracilis—a protozoan living in water, representing the flagellates—Mastigophora, family Euglenaceae. • Trichomonas hominis—a protozoan living in the human colon, representing the Trichomonadidae.
# The gregarines were isolated from the cockroaches and, after being placed on a watch slide, were treated with the products at different concentrations in Ringer's solution. Each sample contained ten individuals.
# The compositions, negative controls, and positive controls were dissolved in an aqueous solution of polysorbate 80 (0.05%) before application to a watch slide.
# After this time, the reaction product was filtered through filter paper. […] Compositions I and II were then analysed for their antiprotozoal properties. […]
# The tested preparations were dissolved in an aqueous solution of polysorbate 80 (0.05%) before being applied to a watch glass. […] Observation under a fluorescence microscope with phase contrast was carried out.
# Amoeba proteus = experiment: in vitro protozoicidal test on watch glass, LD50/LD100; format: cell-based
# Trichomonas hominis = experiment: as above; format: cell-based
# [1] = test system: Trypanosoma cruzi and Leishmania chagasi; settings: cited from earlier work
# Trypanosoma cruzi = settings: read-out: inhibitory effect on 50% of the population (IC50); cited from earlier work
# [2] = test system: Trypanosoma cruzi and different Leishmania species; settings: cited from earlier work
# [3] = 100% mortality within 3 minutes
compound,measurement,setting,value
copper carbonate [Copper carbonate solution],LD100,Gregarina blattarum,0.37%
"Cc1ncc([N+](=O)[O-])n1CCO [M, metronidazole]",LD50,Amoeba proteus; 50% mortality within 3 minutes,0.3%
same,LD100,Amoeba proteus; [3],0.5%
same,LD50,Trichomonas hominis; 50% mortality within 3 minutes,0.05% and 0.08%
same,LD100,Trichomonas hominis; [3],0.1% and 0.15%
same,LD50,Gregarina blattarum; 50% mortality within 3 minutes,0.13% and 0.3%
same,LD100,Gregarina blattarum,0.3%
CC1CS(=O)(=O)CCN1/N=C/c1ccc([N+](=O)[O-])o1 (stereo not shown) [Nifurtimox],IC50,[1],0.3 to 0.4 µg/mL
same,IC50,Trypanosoma cruzi,6 µM
O=C(Cn1ccnc1[N+](=O)[O-])NCc1ccccc1 [benznidazole],values obtained (in vitro antiprotozoal activity),[2],45.02 µg/mL
